Read-outs that look alike come from different tables or passages of the source.
What was measured:
[1] = test system: human oral fluid-cell harvests; experiment: cells; format: cell-based
[2] = test system: peripheral inflammatory cells of oral fluid-cell harvests; format: cell-based, human
[3] = target: T1, myeloperoxidase (Homo sapiens, UniProt P05164); experiment: NADH2-NDGA-myeloperoxidase spectrophotometric assay of sputum / oral fluid-cell harvest supernatant extracts; format: biochemical; conditions: for IC50: read-out: concentration that produces fifty (50) percent inhibition of myeloperoxidase
T1 construct: Homogenates were centrifuged at 1,300×g for ten (10) minutes and the supernatant extracts were kept during the course of analysis; from tissue; host or cells: human sputum / oral fluid-cell harvest (neutrophil-rich) homogenate supernatants
T1 sequence (P05164 49-745): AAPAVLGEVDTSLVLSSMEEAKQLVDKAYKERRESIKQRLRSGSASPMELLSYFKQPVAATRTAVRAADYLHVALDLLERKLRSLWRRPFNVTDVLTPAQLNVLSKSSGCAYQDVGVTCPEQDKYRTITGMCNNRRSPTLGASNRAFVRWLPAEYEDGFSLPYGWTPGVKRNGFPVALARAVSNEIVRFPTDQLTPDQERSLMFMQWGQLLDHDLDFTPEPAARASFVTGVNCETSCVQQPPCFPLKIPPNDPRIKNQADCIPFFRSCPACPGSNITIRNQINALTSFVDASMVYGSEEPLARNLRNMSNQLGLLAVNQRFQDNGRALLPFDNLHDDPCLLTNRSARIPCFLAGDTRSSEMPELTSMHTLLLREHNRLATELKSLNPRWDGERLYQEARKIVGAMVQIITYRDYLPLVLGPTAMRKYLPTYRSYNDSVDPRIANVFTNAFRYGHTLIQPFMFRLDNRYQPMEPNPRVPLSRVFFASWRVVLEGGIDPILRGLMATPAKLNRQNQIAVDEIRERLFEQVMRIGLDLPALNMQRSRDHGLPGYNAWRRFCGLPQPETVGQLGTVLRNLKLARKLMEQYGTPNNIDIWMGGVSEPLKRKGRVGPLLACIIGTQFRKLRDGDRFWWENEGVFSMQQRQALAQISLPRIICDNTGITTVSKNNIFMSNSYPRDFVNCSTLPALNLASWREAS
Method: Aliquots of fresh human oral fluid-cell harvests as exemplified above or fresh human sputum collected by the donors over a twenty-four (24) hour period were disrupted employing either Ten Broeck glass homogenizers or the Virtis homogenizer. Homogenates were centrifuged at 1,300×g for ten (10) minutes and the supernatant extracts were kept during the course of analysis at zero degrees centigrade (0° C.). Other reactants were incubated at thirty-five degrees centigrade (35° C.). Reduced nicotinamide-adenine dinucleotide oxidase and norhydroguaiaretic acid-myeloperoxidase activities were followed at 340 mμ or (nm) employing the Beckman Model DU Spectrophotometer temperature regulated at thirty-five degrees centigrade (35° C.). All specific reactions were run as duplicate assays.
Although this oxidation was very small under the conditions of experiment, an interaction correction factor was determined and applied to all reduced nicotinamide-adenine dinucleotide-nordihydroguaiaretic acid-mycloperoxidase assay reactions.
The velocity constants for the myeloperoxidase reactions behaved and were computed in accord with zero order reaction kinetics. […] In most instances, the activities followed first order reaction kinetics for a short interval and then ceased abruptly. The latter may be due to the presence or accumulation of variable concentrations of an unidentified inhibitor or inhibitors in the supernatants. Since in all cases the oxidase activities were very slow relative to the myeloperoxidase activities, the difference in optical density over the course of the reactions (up to ten (10) minutes) for the oxidase system were computed in the same manner as the data for the rapid myeloperoxidase system. Thus, all velocity constants were expressed in μ Moles of reduced nicotinamide-adenine dinucleotide oxidized per minute per ml. of oral fluid-cell harvest or sputum. The small oxidase activities were applied as a correction factor in the computation of all myeloperoxidase velocity constants.
The pH optimum of the myeloperoxidase system was determined. When fresh nordihydroguaiaretic acid solutions were prepared and interaction rates with reduced nicotinamide-adenine dinucleotide were subtracted as controls from oral lavage and sputum supernatant myeloperoxidase activities, the net velocity constants were zero (0). On the other hand, five (5) hour old nordihydroguaiaretic acid solutions yielded optimal activities at approximately pH 7.4. Subsequent experiments uniformly were carried out at pH 7.0 using five (5) hour old solutions to minimize the rates of the auto oxidation of nordihydroguaiaretic acid and oxidation of reduced nicotinamide-adenine dinucleotide by nordihydroguaiaretic acid when employing alkaline pH's.

[4] = test system: polymorphonuclear neutrophils; conditions: cited from earlier work
[5] = test system: granular masses and polymorphonuclear neutrophils; conditions: cited from earlier work
[6] = test system: myeloperoxidase (verdoperoxidase); conditions: cited from earlier work
[7] = with added 0.024 Molar hydrogen peroxide
[8] = Homo sapiens, read-out: inhibition of aerobic (d) glucose dependent metabolism
[9] = Homo sapiens, read-out: inhibition of anaerobic glucolysis
[10] = Homo sapiens, read-out: inhibition of aerobic endogenous metabolism
[11] = Homo sapiens, read-out: inhibition of anaerobic glucose metabolism

nitric oxide [Nitrogen oxide]
influence on metabolism [1]: did not influence | influence on cell function [2]: did not influence

NO [Hydroxylamine, hydroxylamine]
IC50 ([3]; supernatant extracts): 0.33 mM | inhibition of hydrogen peroxide-dependent nitro-blue tetrazolium reducing enzyme activity [4, 7]: inhibited markedly | inhibition of endogenous reactions in polymorphonuclear neutrophils and granular masses [5]: not inhibited | inhibition of myeloperoxidase activity ([6]; Agner 1941, 1958): inhibited

OO [Hydrogen peroxide, hydrogen peroxide]
inhibition of hydrogen peroxide-dependent nitro-blue tetrazolium reducing enzyme activity ([4]; 0.15 Molar hydrogen peroxide): totally | inhibition of endogenous nitro-blue tetrazolium reducing enzyme activity in granular masses ([5]; 0.15 Molar hydrogen peroxide): 100%

[Cu+2] [cupric ion]
inhibition of exogenous hydrogen peroxide-dependent reaction in polymorphonuclear neutrophils ([4]; low concentrations): inhibited completely | inhibition of endogenous reactions in granular masses and polymorphonuclear neutrophils ([5]; low concentrations): inhibited completely

CC=O [Acetaldehyde, acetaldehyde]
inhibition at 100 µM [1, 8]: 25% | inhibition at 1000 µM [1, 8]: 60% | inhibition at 100 µM [1, 9]: 10% | inhibition at 1000 µM [1, 9]: 30%

[O]N=O [Nitrogen dioxide, nitrogen dioxide]
inhibition of aerobic metabolism [1]: variable and, at times, doubtful inhibitions | peripheral inflammatory cell function [2]: enhanced peripheral inflammatory cell function

C=CC=O [Acrolein, acrolein]
inhibition at 1 µM [1, 8]: 49% | inhibition at 2.5 µM [1, 8]: 81% | inhibition at 1 µM [1, 10]: 48% | inhibition at 2.5 µM [1, 10]: 66% | inhibition at 10 µM [1, 11]: 18% | inhibition at 25 µM [1, 11]: 43% | peripheral inflammatory cell function [2]: impaired to virtual total loss of function

[F-].[Na+] [Sodium Flouride, sodium fluoride]
IC50 [3]: 63 mM | inhibition of myeloperoxidase activity [6]: inhibited

O=C(O)CI [iodoacetate]
inhibition of exogenous hydrogen peroxide-dependent reaction in polymorphonuclear neutrophils [4]: inhibited completely | inhibition of endogenous reactions in granular masses and polymorphonuclear neutrophils [5]: inhibited completely

B1: crystalline catalase (protein, UniProt P00432 2-527, looked up)
Catalase: ADNRDPASDQMKHWKEQRAAQKPDVLTTGGGNPVGDKLNSLTVGPRGPLLVQDVVFTDEMAHFDRERIPERVVHAKGAGAFGYFEVTHDITRYSKAKVFEHIGKRTPIAVRFSTVAGESGSADTVRDPRGFAVKFYTEDGNWDLVGNNTPIFFIRDALLFPSFIHSQKRNPQTHLKDPDMVWDFWSLRPESLHQVSFLFSDRGIPDGHRHMNGYGSHTFKLVNANGEAVYCKFHYKTDQGIKNLSVEDAARLAHEDPDYGLRDLFNAIATGNYPSWTLYIQVMTFSEAEIFPFNPFDLTKVWPHGDYPLIPVGKLVLNRNPVNYFAEVEQLAFDPSNMPPGIEPSPDKMLQGRLFAYPDTHRHRLGPNYLQIPVNCPYRARVANYQRDGPMCMMDNQGGAPNYYPNSFSAPEHQPSALEHRTHFSGDVQRFNSANDDNVTQVRTFYLKVLNEEQRKRLCENIAGHLKDAQLFIQKKAVKNFSDVHPEYGSRIQALLDKYNEEKPKNAVHTYVQHGSHLSAREKANL
inhibition of myeloperoxidase activity ([3]; 14 units of crystalline catalase added): ~50% | inhibition of myeloperoxidase activity ([3]; 41 units of crystalline catalase added): ~90% | inhibition of hydrogen peroxide-dependent nitro-blue tetrazolium reducing enzyme activity [4, 7]: inhibited markedly | inhibition of endogenous reactions in polymorphonuclear neutrophils and granular masses [5]: not inhibited

— patent US6796312B2, “Process and apparatus for the removal of toxic components of tobacco smoke and the standardization of the health hazards related to those components” (priority 2001, dated 2004)
